In patent US7807654B2, “Compositions and methods for treatment of mitochondrial diseases” (Wellstat Therapeutics Corporation, priority 1998, dated 2010):

How the values were obtained:
[1] = tested on: 3NP treated mice; assay: 3-nitropropionic acid (3NP) model of epilepsy; type: in vivo, CD-1 mice
Source text: 3-nitropropionic acid (3NP) is a mitochondrial toxin that acts by inhibiting Complex II of the respiratory chain; it is used to induce brain lesions similar to those characteristic of Huntington's disease. Seizures can also be induced by the use of 3NP as a model of epilepsy and mitochondrial dysfunction. Urbanska et al., Eur J Pharmacol, 359: 55-8 (1998). Male CD-1 mice (National Cancer Institute, NCI, Frederick. Md.) weighing between […] were used throughout. Mice were divided into groups of 5 and animals for each group were randomly chosen from different cages to avoid possible influence of age. The mice were maintained on a 12 hr light dark cycle with free access to water and food. All experiments were performed during the light period between 9:00 and 16:00 hr. Mice (n=17-20) were given 160 mg/kg 3NP and followed for seizures. 3NP was made up at 16 mg or 18 mg/ml in sterile water (pH: 7.4). 3NP was administered i.p. in a volume of 0.1 m/10 g body weight. […] Seizures were assessed similar to the methods previously described (Roberts & Keith, J Pharmacol Exp Ther, 270:505-11, 1994; Urbanska et al., Eur J Pharmacol, 359:55-8, 1998).
Behavioral observations were performed within 120 min following application of 3-NP. Three major categories of convulsive seizure response were been considered and recorded: • 1. Clonic movements: the movements of the forelimbs accompanied by facial twitching; • 2. Explosive clonic movements: the movement of all four limbs involving running, jumping and bouncing; • 3. Tonic response: including tonic flexion and tonic extension of the all four limbs.
Mortality rate was evaluated at 120 min after 3NP injection.

[2] = tested on: 3NP treated mice; assay: 3-nitropropionic acid (3NP) model of Huntington's disease; type: in vivo, Swiss mice
Description: Male 6-8 month old Swiss mice (National Cancer Institute; NCI, Frederick, Md.) were treated with 3NP (65 mg/kg i.p.) daily for 4 days to induce mortality, neuronal cell loss and behavioral impairment with n=8/group. […] On day 9, the mice were perfuse fixed with 10% buffered formalin and processed for silver staining to detect neuronal damage. […] There was no mortality in the 3NP+TAU group, but 3 of 8 mice died in the vehicle+3NP group.
Behavioral scoring of the 3NP treated mice was to determine whether there was any motor impairment at anytime during the study. There were 88% of the control+3NP treated mice with behavioral impairment indicated by gross observation. A decreased incidence of impairment of only 50% was found in the TAU+3NP treated mice.
The silver staining was analyzed by a pathologist blinded to the identity of tissue samples. […] However, in the control+3NP treated mice, silver staining of synaptic terminals in the striatal area (caudate/putamen area) and substantia nigra was pronounced. Silver impregnation of axons and/or synaptic terminals in the thalamus, deep mesencephalon and/or reticular formation (medulla) was also found in […] of the control+3NP treated mice. The substantia nigra projects to the striatum and these areas are especially vulnerable to damage by 3NP. The damage to the substantia nigra and striatum was prevented by TAU.

[3] = tested on: MPTP treated mice; assay: MPTP model of Parkinson's disease, second study; type: in vivo, C57/BL6 mice; settings: MPTP b.i.d. for 2 days, sacrificed on day 9, mean ± SEM
Description: A second study using MPTP (25 mg/kg i.p. b.i.d. for 2 days) was performed. […] TAU or vehicle was given orally (dose of TAU=4 g/kg bw b.i.d.) starting the day before MPTP administration and ending on day 8. Mice were sacrificed on day 9.

[4] = tested on: MPTP treated mice; assay: MPTP model of Parkinson's disease, first study
[5] = target: cytochrome oxidase (Complex IV) (Homo sapiens, UniProt P00395); settings: Brown G C, Mol. Cell. Biochem. 174:189-192, 1997; cited from earlier work
[6] = tested on: mice given intrastriatal QA; assay: Quinolinic acid (QA) model of excitotoxicity; type: in vivo, Swiss mice; settings: TAU 4 g/kg bw p.o. b.i.d.
[7] = tested on: taxol-treated mice; assay: Taxol-induced neuropathy, tail-flick latency; type: in vivo; settings: nine days after initiation of taxol 21.6 mg/kg/day i.p. for 6 days; oral triacetyluridine 4000 mg/kg b.i.d.
Description: Two groups of 10 mice each were treated with taxol, 21.6 mg/kg/day for 6 consecutive days by intraperitoneal injection. An additional group of 10 mice received injections of vehicle alone. One of the groups of taxol-treated mice received oral triacetyluridine, 4000 mg/kg b.i.d. Nine days after the initiation of taxol treatments, nociceptive sensory deficits were tested by determining tail-flick latency after exposure of the tip of the tail to focused thermal radiation with an infrared heat lamp. In this system, delays in the tail-flick response to radiant heat correlate with sensory nerve deficits.

[8] = tested on: Normal human neural progenitor (NHNP) cells; assay: Survival of differentiated NHNP cells without glucose and with azide (LDH/MTT); type: cell-based; settings: no glucose, sodium azide 0, 2, 4 and 8 mM, 20 hours (FIG. 16)
Description: NHNP cells derived from fetal brain were obtained from Clonetics (Walkersville, Md.; cat# CC-2598). The NHNP cells can be differentiated into neurons, glial cells, endothelial cells or microglial cells. […] Rockville, Md.) and hLIF (R&D System, Cat. 250-L-050. […] NHNP cells, passage 3-14 were plate in 96 well plates at 10 k cells/well and differentiated for 10 days. On the day of the experiment, cells were washed with DMEM without glucose, then incubated 20 hours in 100 μl of DMEM, no glucose and dialyzed 1% FBS (Life Technology Cat. 26300-061). […] Cell survival was assessed by the ratio of extracellular lactate dehydrogenase (LDH)/intracellular total dehydrogenase activity (MTT assay). Each condition was assayed in triplicate or quadruplicate. […] Extracellular LDH was assayed with 50 μl of supernatant using the Cytotoxicity Assay Kit (CytoTox 96 Non-Radioactive Cytotoxicity Assay; Promega, Cat. G1780. Madison, Wis.) according to kit instructions and read OD at 490 nm. After removing medium from the NHNP cells, 100 μl of assay medium (DMEM, no glucose and dialyzed 1% FBS) was added back to the cells. MTT was assayed in cells according to the kit instructions using Cell Proliferation Assay Kit (Promega, Cat. G4100. Madison, Wis.). Dye solution (15 μl) was added to each well and incubated 4 hours at 37° C. […] OD was read at 570 nm.

[9] = tested on: 3NP treated mice; assay: 3NP model with TAU, creatine or coenzyme Q10: locomotor activity; type: in vivo, CD-1 mice
Description: (§1) Retired male CD-1 mice, 7-9 months of age, (Strain: Cr:NIH (S); Source: NCI) weighing 30-40 g were housed singly throughout the study. The animals were kept on a 12-hour light/dark cycle, with food and water continuously available. The animals were acclimated to our facility for seven days before experimentation. The mice were randomly assigned treatment groups.
(§2) The mice were given 3NP at a dose of 40, 40, 50, 50, 60 and 60 mg/kg i.p. on days 1-6 and 50 mg/kg i.p. on days […] was made up at 4, 5 or 6.0 mg/ml in sterile water (pH to 7.4 with 1.0 NaOH) and 0.1 ml/10 g BW was given (i.p) to each mouse at 3-4 PM.
(§3) The dosing of TAU (Nagase & Co., Ltd., Chemicals Second Division, 5-1, Nihonbashi-Kobunacho, Chuo-Ku, Tokyo 103, Japan; Lot 103 H 0060) was mixed into the rodent chow at 6% weight/weight. Creatine (Sigma) was mixed into the chow at 2% (weight/weight) that is previously reported to be the optimal dose (Matthews, Yang et al. 1998). […]
The Photobeam Activity System (San Diego Instruments, San Diego, Calif.) was used to measure spontaneous activity. […] Spontaneous activity was quantified by placing mice in the Photobeam Activity System for a period of 30 min. […]
(§4) Data were analyzed by one- or two-way ANOVA followed by comparison of treatments by the Tukey test. […]

[10] = tested on: 3NP treated mice; assay: 3NP model with TAU, creatine or coenzyme Q10: rotarod; type: in vivo, CD-1 mice
Description: as §1, §2
as §3, with “1998). Coenzyme Q10 (Sigma) was also provided in the chow at a dose 200 mg/kg chow) previously shown to be effective (Matthews, Yang et al. 1998).” for “1998).”
The Rotarod apparatus (San Diego Instruments, San Diego, Calif.) was used to measure fore- and hindlimb motor coordination and balance. […] The latency to fall off the rotarod within this time period was recorded. […]
as §4

[11] = tested on: 3NP treated mice; assay: 3NP model with TAU, creatine or coenzyme Q10: mortality and body weight; type: in vivo, CD-1 mice; settings: for mortality due to 3NP treatment: experiments 1 and 2 (FIGS. 1 and 2), 6% TAU, 2% creatine, coenzyme Q10 200 mg/kg chow
Description: as §1
The mice were given 3NP at a dose of 40, 40, 50, 50, 60 and 60 mg/kg i.p. on days 1-6 and 50 mg/kg i.p. on days 5-12.
as §2
The dosing of TAU (Nagase & Co., Ltd., Chemicals Second Division, 5-1, Nihonbashi-Kobunacho, Chuo-Ku, Tokyo 103, Japan; Lot 103 H 0060) was mixed into the rodent chow at 6% weight/weight. Creatine (Sigma) was mixed into the chow at 2% (weight/weight) that is previously reported to be the optimal dose (Matthews, Yang et al. 1998). Coenzyme Q10 (Sigma) was also provided in the chow at a dose 200 mg/kg chow) previously shown to be effective (Matthews, Yang et al. 1998).
• n=9-12/group • Vehicle+Vehicle • Vehicle+3NP • TAU+3NP • Creatine+3NP • TAU and Creatine+Vehicle
• (n=8-10/group) • Vehicle+Vehicle • Vehicle+3NP • TAU+3NP • Coenzyme Q10+3NP • TAU and Coenzyme Q10+Vehicle
• (n=8-10/group) • Vehicle+Vehicle • Vehicle+3NP • 8% TAU+Vehicle • 2% TAU+3NP • 4% TAU+3NP • 8% TAU+3NP
Data were analyzed by one- or two-way ANOVA followed by comparison of treatments by the Tukey test. Data are represented as mean±SEM.

[12] = 160 mg/kg 3NP i.p., TAU 4 g/kg p.o. 2 hours prior, within 120 min

O=C(O)CC[N+](=O)[O-] [3NP, 3-nitropropionic acid]
Latency to clonic seizure ([1]; 160 mg/kg 3NP i.p., TAU 4 g/kg p.o. 2 hours prior, mean ± SEM): 23.8 ± 0.7 min
% Clonic seizures [1, 12]: 90.0%
% Running seizures [1, 12]: 42.9%
% Mortality ([1]; at 120 min after 3NP injection): 35%
mortality due to 3NP ([2]; 3NP 65 mg/kg i.p. daily for 4 days, TAU 4 g/kg bw p.o. b.i.d., n=8/group): 3 of 8
mice with behavioral (motor) impairment by gross observation ([2]; at anytime during the study): 88%
mice with silver impregnation of axons and/or synaptic terminals in thalamus, deep mesencephalon and/or reticular formation ([2]; day 9): 80%
neuronal damage by silver staining (striatal area, substantia nigra) ([2]; day 9, blinded pathologist): pronounced

CN1CC=C(c2ccccc2)CC1 [MPTP, 1-methyl-4-phenyl-1,2,3,6-tetrahydropyridine]
Striatal DA, MPTP-treated mice [3]: 15.9 ± 2.2 ng DA/mg protein
mortality ([4]; MPTP 30 mg/kg i.p. b.i.d. for 1.5 days, TAU 4 g/kg p.o. b.i.d.): 71.4%
Striatal DA, MPTP-treated mice ([4]; first study, eight days after stopping MPTP, mean ± SEM): 9.2 ± 2.2 ng DA/mg protein

[N]=O [Nitric oxide]
concentration that inhibits cytochrome oxidase / mitochondrial respiration [5]: ~1 µM

O=C(O)c1cccnc1C(=O)O [QA, Quinolinic acid]
percent of mice surviving the 7 days ([6]; 50 nmoles QA bilaterally in striatum): 64%
percent of mice surviving the 7 days ([6]; 100 nmoles QA bilaterally in striatum): 4%

CC(=O)O[C@H]1C(=O)[C@@]2(C)[C@H]([C@H](OC(=O)c3ccccc3)[C@]3(O)C[C@H](OC(=O)[C@H](O)[C@@H](NC(=O)c4ccccc4)c4ccccc4)C(C)=C1C3(C)C)[C@]1(OC(C)=O)CO[C@@H]1C[C@@H]2O [Taxol, taxol]
Tail flick latency [7]: 16.0 ± 3.1 s

O=c1ccn([C@@H]2O[C@H](CO)[C@@H](O)[C@H]2O)c(=O)[nH]1 [Uridine, uridine]
uridine concentration required for robust protection of cells [8]: ≥ 50 µM

COC1=C(OC)C(=O)C(C/C=C(\C)CC/C=C(\C)CC/C=C(\C)CC/C=C(\C)CC/C=C(\C)CC/C=C(\C)CC/C=C(\C)CC/C=C(\C)CC/C=C(\C)CCC=C(C)C)=C(C)C1=O [coenzyme Q10]
decrease in activity due 3NP treatment ([9]; experiment 2 (FIG. 8)): attenuated
impairment in rotarod performance at 10 RPM due 3NP treatment ([10]; experiment 2 (FIG. 11)): attenuated
loss in body weight due to 3NP ([11]; experiment 2 (FIG. 5)): attenuated
mortality due to 3NP treatment [11]: decreased mortality

CN(CC(=O)O)C(=N)N [creatine]
decrease in activity due 3NP treatment ([9]; experiment 1 (FIG. 7)): not attenuated
impairment of rotarod performance at 5 RPM due to 3NP ([10]; experiment 1 (FIG. 10)): significantly (p<0.01)
mortality due to 3NP treatment [11]: not
